# Results reported in US20240358846A1, “Nanoparticles and Peptides for the Delivery of Cargos to Muscle Cells” (4BASEBIO, S.L.U., priority 2021, published 2024).
# Tests used:
# [1] = test system: C2C12 cells; assay: GFP expression in C2C12 cells transfected with pDNA:lipid:peptide nanoparticles (flow cytometry, microscopy); assay type: cell-based, mouse; conditions: 48 h; for cells expressing GFP (GFP expression level, transfection efficiency): pDNA:lipid:peptide nanoparticles, different targeting sequences, FIG. 2; for cells expressing GFP (GFP expression level, transfection efficiency) / GFP transfection efficiency: DD 2:1 with 20% cholesterol; for GFP transfection efficiency: pDNA:lipid:peptide, MD2 in different conformations, FIG. 4
# Description: C2C12 cells, an immortalised mouse myoblast line, were cultured in Dulbecco's Modified Eagle's Medium (DMEM, Gibco) containing 10% fetal bovine serum (FBS, Gibco) and 1% pen/strep (Gibco).
# Transfections in C2C12 cells were performed with a range of peptide:liposome:nucleic acid cargo ratios. Transfections were performed in a 96-well plate at a density of 8,000 cells per well seeded 24 h previously. Charge and mass ratio of components in the transfection complex varied; DNA was maintained at a constant mass of 300 ng per well, while lipid component was altered. In one case, the molar ratio of the cationic lipid C18 to the phospholipid DOPE was kept at 1:1 (DD). In another case, the molar ratio of the cationic lipid C18 to the phospholipid DOPE was kept at 2:1 (DD 2:1), while cholesterol was added at a molar percentage of 10 or 20% of the total lipid content. The mass ratio of linear DNA:liposome:peptide was maintained at 1:3:3, while the muscle-cell binding peptides were in some cases altered.
# (§1) Transfection complexes were formed via electrostatic interaction by vigorous pipetting, before diluting in a final volume of 200 μl per well, with a DNA concentration of 1.5 ng/μl. All dilutions were performed with OptiMEM reduced serum media. Controls included cells with no transfection complexes added (OptiMEM only).
# Transfection complexes were incubated for 30 min at RT before adding to cells. All conditions were performed in triplicate. Cells were incubated at 37° C. for 4 hours, before replacing media with growth media. 48 h post-transfection, the cells were rinsed in PBS, before incubation in 0.05% Trypsin EDTA (Gibco) to detach the cells. Cells were then re-suspended in PBS for analysis by flow cytometry.
# [2] = test system: C2C12 cells; assay: GFP expression in C2C12 cells transfected with mRNA:lipid:peptide nanoparticles; assay type: cell-based, mouse; conditions: mRNA:lipid:peptide 1:5:2.5, DOTMA/DOPE 2:1 with 10% cholesterol, 500 ng/well, 4 h, FIG. 16
# Description: Shown in FIG. 16 is GFP expression in C2C12 cells transfected with mRNA derived from linearised plasmid encapsulated in lipid-peptide nanoparticles.
# (§2) Nanoparticles were formulated manually by pipetting following a mass ratios of 1:5:2.5 (mRNA:lipid:peptide). Firstly, the components mRNA, lipid and peptide were suspended in Ultra pure water in volumes of 60 ul, 60 ul and 80 ul, respectively. Components were mixed following the order-lipid to peptide, mRNA to lipid+peptide mix. Nanoparticles were allowed to incubate for 30 minutes at room temperature. All samples were diluted in serum-free media before transferring them onto cells. C2C12 cells were transfected with 500 ng/well of mRNA nanoparticles. The microplate was centrifuged at 12000 rpm for 5 minutes and incubated at 37 C for 4 hours. After 4 hours, cells were trypsinised and prepared for FAQs.
# [3] = Size and PDI of miRNA-lipid-peptide complexes, hand-mixing vs microfluidics (DLS); assay type: physicochemical; conditions: FIG. 23; for size of complexes: C18/DOPE 2:1 with 10% cholesterol
# Source text: Shown in FIG. 23 is size and polydispersity index (PDI) of miDNA-lipid-peptide complexes formulated through two different methods: hand-mixing—where complexes are formed by vigorous pipetting using a micropipette; or through a microfluidics platform. The lipid components comprised of C18/DOPE at a molar ratio of 2:1 with 10% cholesterol. The final formulation was following a mass ratio of 1:5 closed linear DNA:liposomes with N/P ratio of 6 driven by the peptide C1L-N-16-K16GAAPWHLSSQYSRT (SEQ ID NO: 49).
# The hand-mixed complexes were formed by firstly suspending each of the components in ultra pure water, with the following mixing order-liposomes to peptide, closed linear DNA to liposomes+peptide complexes. Nanoparticles were allowed to incubate for 30 minutes at room temperature prior to a further dilution in water required for biophysical charaterisation by a DLS system (Zetasizer Ultra-Malvern).
# For complexes formed through a microfluidics device (Nanoassemblr Ignite-Precision Nanosystems), lipid components were suspended in 99% pure ethanol at identical ratios to hand-mixed particles. Lipid components in ethanol were loaded onto the instrument along with miRNA and peptide C1L, both suspended in water. A flow rate ratio (FRR) of 1:3 of miRNA to lipid was mixed together at a total flow rate (TFR) of 12 mL/min prior to the addition of the peptide (FRR of 1:1, TFR 12 mL/min). The complexes formulated using the Nanoassemblr we then dialysed for 4 h using a Slide-a-Lyzer dialysis cassette (ThermoFisher) to remove residual ethanol.
# [4] = test system: H9C2 cells; assay: GFP expression in H9C2 cells transfected with nucleic acid-lipid-peptide nanoparticles (flow cytometry); assay type: cell-based, rat; conditions: 300 ng/well; for cells GFP positive (transfection efficiency): 48 h post-transfection; for GFP positive cells (transfection efficiency): mRNA in lipid-peptide nanoparticles, 4 h post transfection, FIG. 13
# Description: H9C2 cells, an immortalised cell line derived from embryonic rate heart tissue were cultured in Dulbecco's Modified Eagle's Medium (DMEM, Gibco) containing 10% fetal bovine serum (FBS, Gibco) and 1% pen/strep (Gibco).
# Transfections in H9C2 cells were performed with a range of peptide:liposome:nucleic acid cargo ratios. Transfections were performed in a 96-well plate at a density of 8,000 cells per well seeded 24 h previously. Closed linear DNA/mRNA was maintained at a constant mass of 300 ng per well, while peptide component was altered. The molar ratio of the cationic lipid C18 to the phospholipid DOPE was kept at 2:1 (DD 2:1), while cholesterol was added at a molar percentage of 10% of the total lipid content. The mass ratio of closed linear DNA/mRNA:liposome:peptide was maintained at 1:5:2.52.
# as §1, with “ul” for “μl”, “ng/ul.” for “ng/μl.”, “only), complexes targeting a different cell, or complexes with no targeting sequence component.” for “only).”
# Transfection complexes were incubated for 30 min at RT before adding to cells. All conditions were performed in triplicate. Cells were incubated at 37° C. for 4 hours, before replacing media with growth media.
# In the case of mRNA, 4 h post-transfection, the cells were rinsed in PBS, before incubation in 0.05% Trypsin EDTA (Gibco) to detach the cells. Cells were then resuspended in PBS for analysis by flow cytometry. In the case of closed linear DNA, 48 h post-transfection, the cells were rinsed in PBS, before incubation in 0.05% Trypsin EDTA (Gibco) to detach the cells. Cells were then resuspended in PBS for analysis by flow cytometry.
# [5] = Biophysical characterisation of DNA-lipid-peptide nanoparticle (DLS, ELS, MADLS); assay type: physicochemical
# Description: The size in nm by Dynamic Light Scattering (DLS), zeta potential in mV by Electrophoretic Light Scattering (ELS), and concentration of particles per ml by Multi-Angle Dynamic Light Scattering (MADLS) of the hpDNA-lipid-peptide nanoparticles was determined using the Zetasizer Ultra (Malvern). Complexes were prepared as before, except formulated in nuclease-free water rather than Opti-MEM. Samples containing 0.7 μg plasmid were diluted in 1 ml for analysis.
# [6] = test system: HEK293 cells; assay: GFP expression in HEK293 cells transfected with plasmid DNA-peptide complexes or DNA-lipid-peptide nanoparticles; assay type: cell-based; conditions: particles formed using DNA and peptide only, 48 h, FIG. 5
# Description: GFP expression was imaged 48 h post transfection. n=3 in all experiments, error bars=S.D.
# The high expression in C2C12 compared with HEK293 cells is particularly impressive owing to the high transfection efficiency achievable in HEK293 cells.
# [7] = Size and polydispersity index of closed linear DNA-lipid-peptide nanoparticles by DLS (FIG. 15); assay type: physicochemical; conditions: C18/CHOL/DOPE (58/10/32)
# Description: Dynamic Light Scattering (DLS) measurements were conducted using Zetasizer Ultra (Malvern Panalytical). Each bar represents average value of three measurements (n=3). Complexes were prepared as before, except formulated in nuclease-free water rather than Opti-MEM. Samples containing 0.7 μg closed linear DNA were diluted in 1 ml for analysis. Particles ranged from 37 nm (MD2L) to 57 nm (MD2CC), with PDI values ranging from 0.12 to 0.28. Liposomes encapsulating closed linear DNA with no targeting ligand were used as a control, with a larger size of 70 nm and PDI of 0.13.
# [8] = test system: HEK293 cells; assay: In-vitro transfection efficiency in HEK293 cells of closed linear DNA nanoparticles stored at +4° C. (luciferase assay); assay type: cell-based; conditions: 300 ng closed linear DNA nanoparticles stored up to 40 weeks at +4° C., tested every 5 weeks, FIG. 22B
# Description: Nanoparticles were transfected in HEK293 cells at 5 week intervals. GFP expression was measured 48 h post transfection. n=3 in all experiments.
# Shown in FIG. 22B is relative luminescence units per microgram of protein (RLU/mg of protein) of HEK293 cells transfected with closed linear DNA nanoparticles stored for 40 weeks at +4° C. […] Cells were transfected with 300 ng of closed linear DNA nanoparticles every 5 weeks.
# [9] = test system: C2C12 cells; assay: GFP expression in C2C12 cells transfected with closed linear DNA:lipid:peptide nanoparticles; assay type: cell-based, mouse; conditions: DOTMA/DOPE 2:1 with 10% cholesterol, 300 ng/well, 48 h, FIG. 20
# Description: GFP expression was measured 48 h post transfection. n=3 in all experiments, error bars=S.D. Nanoparticles containing no peptide were used as a control. […] Nanoparticles containing no peptide in their formulation lead to a transfection efficiency of 12% indicating the lowest transfection efficiency in treated cells.
# as §2, with “1:3:2.1.6 (closed linear DNA:lipid:peptide).” for “1:5:2.5 (mRNA:lipid:peptide).”, “closed linear DNA,” for “components mRNA,”, “closed linear DNA” for “mRNA”, “300” for “500”, “closed linear DNA.” for “mRNA nanoparticles.”, “Flow Cytometry analysis.” for “FAQs.”
# [10] = Size and PDI of mRNA:lipid:peptide nanoparticles (FIG. 19); assay type: physicochemical; conditions: DOTMA/DOPE 2:1 with 10% cholesterol
# Source text: Table presented in FIG. 19 presents size (nm) and polydispersity index (PDI) values for the mRNA:lipid:peptide nanoparticles. Sizes of fully formed nanoparticles range from 31 nm for MD2, to 37 nm for MD3 while nanoparticles formulated without a peptide are 61 nm. PDI value is low across all samples which translates into low polydispersity of the nanoparticle population.
# [11] = plasmid DNA-lipid-peptide nanoparticles, FIG. 10
# [12] = closed linear DNA-lipid-peptide nanoparticles, FIG. 11
substance,measurement,setting,value
ASSLNIA [MD1],"cells expressing GFP (GFP expression level, transfection efficiency)",[1]; C2C12,73%
same,cells expressing GFP (transfection efficiency),[2],73%
KKKKKKKKKKKKKKKKGAAPWHLSSQYSRT [C1L-N-16],size of complexes,[3]; hand-mixed,60 nm
same,size of complexes,[3]; microfluidics,40 nm
same,PDI,[3]; hand-mixed,0.23
same,PDI,[3]; microfluidics,0.16
KKKKKKKKKKKKKKKKGAASSLNIA [MD1L],cells GFP positive (transfection efficiency),[4]; [11],20%
KKKKKKKKKKKKKKKKGACRRQPPRSISSHPC [MD2C],GFP transfection efficiency,[1]; C2C12,30.08%
same,GFP expression visualised by microscopy,"[1]; C2C12, particles formed using DNA and peptide only, FIG. 5",some GFP expression
same,"GFP expression, C2C12 compared to HEK293 cells (specificity)","[1]; fully formed nanoparticle with lipid DD with 10% cholesterol, FIG. 5",much higher in C2C12 cells as compared to HEK293 cells
same,size of the particle (DLS),"[5]; DNA-lipid-peptide nanoparticle, C18 (DOTMA) DOPE 10% cholesterol, FIG. 6A",89.4 nm
same,zeta potential (ELS),"[5]; DNA-lipid-peptide nanoparticle, C18 (DOTMA) DOPE 10% cholesterol, FIG. 6B",24.8 mV
same,particle titre (MADLS),"[5]; accounting for the 1 in 100 dilution, FIG. 6E, F",10 E12 particles per ml
same,GFP expression visualised by microscopy,[6],No GFP expression
same,cells GFP positive (transfection efficiency),[4]; [12],6%
same,cells GFP positive (transfection efficiency),[4]; [11],26%
KKKKKKKKKKKKKKKKGARRQPPRSISSHP [MD2L],GFP transfection efficiency,[1]; C2C12,8.24%
same,size (DLS),[7],37 nm
same,GFP positive cells (transfection efficiency),[4],33%
same,cells GFP positive (transfection efficiency),[4]; [11],27%
same,"transfection efficiency after storage (luminescence signal, luciferase assay)",[8],sustained luminescence signal across all time points
KKKKKKKKKKKKKKKKGAWLSEAGPVVTVRALRGTGSW [C2L-N-16],GFP positive cells (transfection efficiency),[4],26%
"KKKKKKKKKKKKKKKKKKKKKKKKKKKKKKGACRRQPPRSISSHPC [MD2C-K30, targeting peptide named MD2C-K30]",cells GFP positive (transfection efficiency),[4]; [12],5%
KKKKKKKKKKKKKKKKRVRRGACASSLNIAC [MD1CC],cells expressing GFP (transfection efficiency),[9],29%
KKKKKKKKKKKKKKKKRVRRGACRRQPPRSISSHPC [MD2CC],GFP transfection efficiency,[1]; C2C12,50.06%
same,size (DLS),[7],57 nm
KKKKKKKKKKKKKKKKRVRRGACSKTFNTHPQSTPC [MD3CC],cells expressing GFP (transfection efficiency),[9],25%
RRQPPRSISSHP [MD2],"cells expressing GFP (GFP expression level, transfection efficiency)",[1]; C2C12,50.1%
same,size,[10],31 nm
same,cells expressing GFP (transfection efficiency),[2],59%
SKTFNTHPQSTP [MD3],"cells expressing GFP (GFP expression level, transfection efficiency)",[1]; C2C12,22.68%
same,size,[10],37 nm
same,cells expressing GFP (transfection efficiency),[2],72%
